Common to all, as to assay type: cell-based
Assay [1] concerns retinoic acid response element (RARE). The assay is described as follows: X-Gal RA based reporter assay (genomic activity). The following applies: for Genomic Activity (X-Gal RA Based Reporter Assay) Efficacy (Emax) / pEC50: Sil-15 reporter cells, overnight incubation; for pEC50: read-out: Genomic Activity (X-Gal RA Based Reporter Assay) Potency (EC50); for Genomic activity and potency compared to retinoic acid (ATRA): X-Gal assay, versus ATRA. How it is done: The genomic activity of synthetic retinoids was evaluated by determining their efficiency of inducing transcription using the X-Gal Assay. The X-Gal Assay utilizes Sil-15 reporter cells in which the transcription of the LacZ gene is under control of a promoter linked to a retinoic acid response element (RARE). After treatment of the reporter cells with retinoids, the ability of the compounds to induce transcription can be attained by monitoring and quantifying the activity of β-galactosidase produced by the reporter cells.
Sil-15 cells were plated at 100,000 cells per well in 96-well plates coated in 0.1% gelatin. The following day, serial dilutions of retinoid ligands, prepared in Dulbecco's Modified Eagle's Medium (DMEM) containing 10% foetal calf serum (FCS) were added at concentrations from 10^−6 M to 10^−14 M and the plates were incubated overnight. All concentrations for the ATRA standard curve and the other retinoid ligands were tested in triplicate.
The next day, the assay plates were washed twice with phosphate buffered saline (PBS), fixed with 100 μl per well of 1% glutaraldehyde and 1 mM MgCl2 in PBS for 15 minutes and washed twice with PBS. β-galactosidase activity was detected by the addition of 100 μl of freshly-prepared 0.2% X-Gal in 1 mM MgCl2, 3.3 mM potassium ferricyanide and 3.3 mM potassium ferrocyanide in PBS per well. Plates were incubated for 6 hours at 37° C. in 5% CO2 and colour change was detected by reading the plates at 650 nm on an Emax Precision Microplate Reader (Molecular Devices).
A general note: A reporter such as luciferase makes a cellular process visible.

Assay [2] deals with ERK1/2. Description: ERK1/2 phosphorylation assay, AlphaLISA SureFire Ultra (non-genomic activity). The arrangement: Non-genomic activity (ERK½ Phosphorylation Assay) Efficacy (Emax): unit not given here. Particulars: SH-SY5Y cells; for pEC50: Homo sapiens, 0.5 h, read-out: Non-genomic activity (ERK½ Phosphorylation Assay) Potency (EC50); for pEC50 / Non-genomic activity (ERK½ Phosphorylation Assay) Efficacy (Emax): serum-free, 30 minutes stimulation; for Erk 1/2 phosphorylation potency/efficacy compared to retinoic acid: versus retinoic acid. The protocol: The non-genomic activity of synthetic retinoids was evaluated by measuring their ability to induce phosphorylation of ERK1/2 using the AlphaLISA® SureFire® Ultra ERK1/2 kit.
In this assay, SH-SY5Y cells (100,000 cells/well) were plated in 96-well plates and serum-starved in DMEM for 24 hours. Retinoids were tested at concentrations from 10−5 M to 10−11 M and at a final concentration of 0.1% DMSO in the medium. The assay was carried out on the SH-SY5Y cells in serum-free DMEM, cells were stimulated by retinoid for 30 minutes at 37° C.
At the end of the assay, the medium was removed, and cells were lysed in 50 μl of freshly prepared 1× lysis buffer (supplied in the kit). The 96-well plate was agitated on an orbital shaker (SO1, Stuart Scientific) at approximately 350 rpm for 10 minutes at room temperature.
In the meantime, the activation buffer was diluted 25-fold in the reaction buffers. Under green light in a dark room, the acceptor beads were diluted 50-fold in the freshly prepared reaction mix while the donor beads were diluted 50-fold in dilution buffer to obtain two final reaction mixtures.
10 μl of cell lysate was then transferred per well into 384-well white Proxiplates plates (PerkinElmer) and 5 μl of each prepared acceptor and donor reaction mixture was added under green light in a dark room. Plates were wrapped with aluminium foil and incubated at room temperature for at least 3 hours. Readings were taken using an Envision system (PerkinElmer Life Sciences) using the AlphaScreen® settings.
(Alpha assays give light when donor and acceptor beads are brought close together.)

In assay [3] the test system is SH-SY5Y cells. Description: Induction of neurite outgrowth. The following applies: 10 nM, 5 days; for fold induction at 0.01 µM: Homo sapiens, 120 h, read-out: Neurite Outgrowth Fold increase. The protocol: SY—SY5Y cells were plated at 10,000 cells/well in 12-well plates containing acid-treated/poly-L-lysine-coated coverslips. After 24 hours, each retinoid was added to the medium at a concentration of 10 nM and the plates were incubated for 5 days. After retinoid treatment, SH-SY5Y cells on coverslips were washed twice in PBS, fixed in 4% paraformaldehyde (PFA) for 20 minutes at room temperature, and washed twice with PBS.
For immunocytochemical staining of neurites, cells on coverslips were washed three times in PBS, and incubated in blocking solution (10% donkey serum and 0.1% triton X-100 in PBS) for 1 hour at room temperature. Cells were then labelled by incubation overnight at 4° C. with β-III tubulin primary antibody (Sigma-Aldrich) diluted 1:1000 in blocking buffer. Following incubation overnight, cells were washed three times with PBS containing 0.1% Triton X-100 solution (PBST) before incubation with anti-mouse monoclonal secondary antibody (1:300 in PBST; Jackson Immunoresearch) for 2 hours at room temperature. Finally, after three washes in PBST and a final wash in PBS, the coverslips were mounted on slides and stored at 4° C.
ImageJ software with the NeuronJ plugin was used to quantify neurite outgrowth on stained cells. For each experiment, 10 different randomly selected images were taken from each cover slip using a Nikon Eclipse E400 fluorescence microscope. Each image was converted into an 8-bit image (necessary for the NeuronJ plugin) and optimised with the brightness and contrast tool in GIMP (GNU Image Manipulation Program). For each image, individual traces were drawn for each clearly-identifiable neurite using the tracing tool in the NeuronJ plugin. Neurite length was measured in pixels and transformed into the corresponding length in μm depending on the magnification used. The average neurite length for each image was calculated by dividing total neurite length by the total number of neurites per image. Ten images per cover slip were measured and the mean calculated for the coverslip overall. Coverslips were in triplicate for each retinoid and concentration.

pEC50: −log10 of the molar value.

For `CC1=C(/C=C/C(C)=C/C=C/C(C)=C/C(=O)O)C(C)(C)CCC1` [ATRA, All-trans-retinoic acid, reference compound], in assay [1], the “Genomic Activity (X-Gal RA Based Reporter Assay) Efficacy (Emax)” value came out at 170.1 and the negative-log EC50 (pEC50) (commonly the negative decadic logarithm of the EC50, by convention in mol/L) was 8.98. In assay [2], the negative logarithm of the EC50 (pEC50) was 7.48 and the “Non-genomic activity (ERK½ Phosphorylation Assay) Efficacy (Emax)” value (“Non-genomic activity” below) stood at 48.55. Moreover, the fold induction at 0.01 µM in assay [3] amounted to 1.4.

For `CC1(C)CCC(C)(C)c2cc(C#Cc3ccc(C(=O)O)c(F)c3)ccc21` [DC525], in assay [1], the “Genomic Activity (X-Gal RA Based Reporter Assay) Efficacy (Emax)” value turned out to be 190; the pEC50 was 9.68; the “Genomic activity and potency compared to retinoic acid (ATRA)” value was “increased genomic activity and potency”. In addition, in assay [2], the negative-log EC50 (pEC50) was 8.60, the “Non-genomic activity” value is 42.44 and the “Erk 1/2 phosphorylation potency/efficacy compared to retinoic acid” value is reported as “higher potency”. Also, in assay [3], the “Average neurite length compared to cells treated with ATRA” value is “significantly larger average neurite length” and the fold induction at 0.01 µM turned out to be 1.9.

In the case of `CC1(C)CCC(C)(C)c2cc(C#Cc3ccc(C(=O)O)cn3)ccc21` [DC527], in assay [1], the “Genomic Activity (X-Gal RA Based Reporter Assay) Efficacy (Emax)” value was 209.8; the pEC50 is 11.46; the “Genomic activity and potency compared to retinoic acid (ATRA)” value was “increased genomic activity and potency”. Also, in assay [2], the pEC50 was 7.51; the “Non-genomic activity” value was 92.51; the “Erk 1/2 phosphorylation potency/efficacy compared to retinoic acid” value is “higher potency and efficacy”. Moreover, in assay [3], the “Average neurite length compared to cells treated with ATRA” value is “significantly larger average neurite length” and the fold induction at 0.01 µM turned out to be 1.9.

As for `CC1(C)CCC(C)(C)c2cc(C#Cc3cnc(C(=O)O)cn3)ccc21` [DC529], in assay [1], the “Genomic Activity (X-Gal RA Based Reporter Assay) Efficacy (Emax)” value is 174 and the pEC50 is 8.41. In assay [2], the pEC50 is 7.52 and the “Non-genomic activity” value was 28.85. For the same molecule, the fold induction at 0.01 µM in assay [3] was found to be 1.3.

`CC1(C)CCC(C)(C)c2cc(C#Cc3cc(F)c(C(=O)O)c(F)c3)ccc21` [DC540]: in assay [1], the “Genomic Activity (X-Gal RA Based Reporter Assay) Efficacy (Emax)” value is 185.3; the pEC50 was 10.82; the “Genomic activity and potency compared to retinoic acid (ATRA)” value is “increased genomic activity and potency”. For the same molecule, in assay [2], the negative-log EC50 (pEC50) is 6.80; the “Non-genomic activity” value is recorded as 79.73; the “Erk 1/2 phosphorylation potency/efficacy compared to retinoic acid” value was “higher potency and efficacy”. Moreover, the fold induction at 0.01 µM in assay [3] was determined as 1.7.

For `Cc1cc2c(cc1C#Cc1ccc(C(=O)O)cc1F)C(C)(C)CCC2(C)C` [DC559], in assay [1], the “Genomic Activity (X-Gal RA Based Reporter Assay) Efficacy (Emax)” value came out at 139.8 and the pEC50 was 8.86. In addition, in assay [2], the negative logarithm of the EC50 (pEC50) was 7.81 and the “Non-genomic activity” value amounted to 40.68. Also, the fold induction at 0.01 µM in assay [3] turned out to be 1.4.

On to `COc1cc2c(cc1C#Cc1ccc(C(=O)O)cc1F)C(C)(C)CCC2(C)C` [DC564], for which, in assay [1], the “Genomic Activity (X-Gal RA Based Reporter Assay) Efficacy (Emax)” value was determined as 177.1 and the negative-log EC50 (pEC50) is 8.27. Moreover, in assay [2], the negative-log EC50 (pEC50) is 7.74 and the “Non-genomic activity” value stood at 44.46. Further, the fold induction at 0.01 µM in assay [3] was 1.3.

For `CC1(C)CCC(C)(C)c2cc(C#Cc3ccc(C(=O)O)cc3Cl)ccc21` [DC567], in assay [1], the “Genomic Activity (X-Gal RA Based Reporter Assay) Efficacy (Emax)” value came to 97.21 and the pEC50 was 7.87. Besides, in assay [2], the pEC50 was 7.74 and the “Non-genomic activity” value is 44.46. Moreover, the fold induction at 0.01 µM in assay [3] turned out to be 1.6.

As to `COc1cc2c(cc1C#Cc1ccc(C(=O)O)cn1)C(C)(C)CCC2(C)C` [DC646], in assay [1], the “Genomic Activity (X-Gal RA Based Reporter Assay) Efficacy (Emax)” value was 176.3 and the pEC50 is 8.50. Also, in assay [2], the pEC50 is 6.84 and the “Non-genomic activity” value is 77.63. In assay [3], the fold induction at 0.01 µM was 1.7.

For `Cc1cc2c(cc1C#Cc1ccc(C(=O)O)cn1)C(C)(C)CCC2(C)C` [DC656], in assay [1], the “Genomic Activity (X-Gal RA Based Reporter Assay) Efficacy (Emax)” value was determined as 177.2 and the pEC50 is 9.37. For the same molecule, in assay [2], the negative logarithm of the EC50 (pEC50) was 6.30 and the “Non-genomic activity” value came to 56.77. Further, the fold induction at 0.01 µM in assay [3] was 1.6.

For the molecule `COc1cc2c(cc1C#Cc1cc(F)c(C(=O)O)c(F)c1)C(C)(C)CCC2(C)C` [DC657], in assay [1], the “Genomic Activity (X-Gal RA Based Reporter Assay) Efficacy (Emax)” value was 154.9 and the negative-log EC50 (pEC50) was 9.83. Besides, in assay [2], the pEC50 is 8.46 and the “Non-genomic activity” value is given as 72.45. Further, in assay [3], the fold induction at 0.01 µM came out at 1.4.

In the case of `Cc1cc2c(cc1C#Cc1ccc(C(=O)O)c(F)c1)C(C)(C)CCC2(C)C` [DC667], in assay [1], the “Genomic Activity (X-Gal RA Based Reporter Assay) Efficacy (Emax)” value is 169.8 and the pEC50 was 9.87. Besides, in assay [2], the pEC50 is 8.31 and the “Non-genomic activity” value was 44.3. Further, the fold induction at 0.01 µM in assay [3] was found to be 1.4.

Consider `COc1cc2c(cc1C#Cc1ncc(C(=O)O)cn1)C(C)(C)CCC2(C)C` [DC706], for which, in assay [1], the “Genomic Activity (X-Gal RA Based Reporter Assay) Efficacy (Emax)” value came out at 265.9 and the pEC50 is 6.22. In assay [2], the pEC50 was 7.04 and the “Non-genomic activity” value came out at 36.87. Also, the fold induction at 0.01 µM in assay [3] is 1.3.

Consider `Cc1cc2c(cc1C#Cc1ncc(C(=O)O)cn1)C(C)(C)CCC2(C)C` [DC707], for which, in assay [1], the “Genomic Activity (X-Gal RA Based Reporter Assay) Efficacy (Emax)” value came to 192.2 and the pEC50 was 9.08. Further, in assay [2], the negative logarithm of the EC50 (pEC50) was 8.36 and the “Non-genomic activity” value came to 44.87. In addition, the fold induction at 0.01 µM in assay [3] came to 1.2.

Regarding `CC1(C)CCC(C)(C)c2nc(C#Cc3ccc(C(=O)O)cc3F)cnc21` [DC712], in assay [1], the “Genomic Activity (X-Gal RA Based Reporter Assay) Efficacy (Emax)” value was 179.7 and the pEC50 is 9.42. Besides, in assay [2], the pEC50 is 8.20 and the “Non-genomic activity” value is recorded as 94. In addition, the fold induction at 0.01 µM in assay [3] is 1.2.

The values above are taken from patent publication US12344587B2, “Synthetic retinoids for use in RAR activation” (UNIVERSITY OF DURHAM, priority 2019, dated 2025).
